Reference: PubChem BioAssay (NCI)
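1) Cells in 96-well plates. 2) Compound, 48 h, 5 concentrations. 3) Linear interpolation between surrounding doses. 4) Unreached endpoint = highest concentration. TGI: concentration producing complete growth inhibition.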

What was measured:
Test in all cases: NCI-60 cell line screen, 48 h
K-562 leukemia = test system: K-562 leukemia
RXF 393 renal = test system: RXF 393 renal
PC-3 prostate = test system: PC-3 prostate
HCT-15 colon = test system: HCT-15 colon
SNB-19 CNS = test system: SNB-19 CNS
OVCAR-8 ovarian = test system: OVCAR-8 ovarian
TK-10 renal = test system: TK-10 renal
U251 CNS = test system: U251 CNS
NCI-H522 lung = test system: NCI-H522 lung
ACHN renal = test system: ACHN renal
SK-OV-3 ovarian = test system: SK-OV-3 ovarian
NCI-H460 lung = test system: NCI-H460 lung
HCC-2998 colon = test system: HCC-2998 colon
786-0 renal = test system: 786-0 renal
CAKI-1 renal = test system: CAKI-1 renal
COLO 205 colon = test system: COLO 205 colon
NCI/ADR-RES ovarian = test system: NCI/ADR-RES ovarian
OVCAR-3 ovarian = test system: OVCAR-3 ovarian
A549 NSCLC = test system: A549 NSCLC
BT-549 breast = test system: BT-549 breast
HS 578T breast = test system: HS 578T breast
SW-620 colon = test system: SW-620 colon
SN12C renal = test system: SN12C renal
MDA-N = test system: MDA-N
OVCAR-5 ovarian = test system: OVCAR-5 ovarian
UO-31 renal = test system: UO-31 renal
SNB-75 CNS = test system: SNB-75 CNS
RPMI-8226 leukemia = test system: RPMI-8226 leukemia
MALME-3M melanoma = test system: MALME-3M melanoma
SR leukemia = test system: SR leukemia
T-47D breast = test system: T-47D breast
HOP-62 NSCLC = test system: HOP-62 NSCLC
KM12 colon = test system: KM12 colon
IGROV1 ovarian = test system: IGROV1 ovarian
M14 melanoma = test system: M14 melanoma
SF-539 CNS = test system: SF-539 CNS
MDA-MB-231 breast = test system: MDA-MB-231 breast
HCT-116 colon = test system: HCT-116 colon
MDA-MB-435 = test system: MDA-MB-435
OVCAR-4 ovarian = test system: OVCAR-4 ovarian
UACC-62 melanoma = test system: UACC-62 melanoma
NCI-H23 lung = test system: NCI-H23 lung
UACC-257 melanoma = test system: UACC-257 melanoma
SK-MEL-5 melanoma = test system: SK-MEL-5 melanoma
SK-MEL-2 melanoma = test system: SK-MEL-2 melanoma
HT29 colon = test system: HT29 colon
SF-295 CNS = test system: SF-295 CNS
SF-268 CNS = test system: SF-268 CNS
CCRF-CEM leukemia = test system: CCRF-CEM leukemia
SK-MEL-28 melanoma = test system: SK-MEL-28 melanoma
LOX IMVI melanoma = test system: LOX IMVI melanoma
EKVX NSCLC = test system: EKVX NSCLC
MCF7 breast = test system: MCF7 breast
MOLT-4 leukemia = test system: MOLT-4 leukemia
NCI-H226 lung = test system: NCI-H226 lung
HOP-92 NSCLC = test system: HOP-92 NSCLC
HL-60(TB) leukemia = test system: HL-60(TB) leukemia
DU-145 prostate = test system: DU-145 prostate

N=c1c2ccccc2nc2oc3cc([N+](=O)[O-])ccc3n12
TGI (K-562 leukemia): > 100 µM | TGI (RXF 393 renal): 32.5 µM | TGI (PC-3 prostate): > 100 µM | TGI (HCT-15 colon): > 100 µM | TGI (SNB-19 CNS): > 100 µM | TGI (OVCAR-8 ovarian): 51.2 µM | TGI (TK-10 renal): 36.6 µM | TGI (U251 CNS): 29.6 µM | TGI (NCI-H522 lung): > 100 µM | TGI (ACHN renal): 57.7 µM | TGI (SK-OV-3 ovarian): 37.1 µM | TGI (NCI-H460 lung): > 100 µM | TGI (HCC-2998 colon): > 100 µM | TGI (786-0 renal): 66.3 µM | TGI (CAKI-1 renal): > 100 µM | TGI (COLO 205 colon): > 100 µM | TGI (NCI/ADR-RES ovarian): 74 µM | TGI (OVCAR-3 ovarian): 70.8 µM | TGI (A549 NSCLC): > 100 µM | TGI (BT-549 breast): 91.6 µM | TGI (HS 578T breast): 50.7 µM | TGI (SW-620 colon): > 100 µM | TGI (SN12C renal): > 100 µM | TGI (MDA-N): > 100 µM | TGI (OVCAR-5 ovarian): > 100 µM | TGI (UO-31 renal): 32.3 µM | TGI (SNB-75 CNS): 24.9 µM | TGI (RPMI-8226 leukemia): > 100 µM | TGI (MALME-3M melanoma): > 100 µM | TGI (SR leukemia): > 100 µM | TGI (T-47D breast): 20.3 µM | TGI (HOP-62 NSCLC): 45.4 µM | TGI (KM12 colon): > 100 µM | TGI (IGROV1 ovarian): > 100 µM | TGI (M14 melanoma): > 100 µM | TGI (SF-539 CNS): 65.4 µM | TGI (MDA-MB-231 breast): 60.5 µM | TGI (HCT-116 colon): > 100 µM | TGI (MDA-MB-435): > 100 µM | TGI (OVCAR-4 ovarian): > 100 µM | TGI (UACC-62 melanoma): > 100 µM | TGI (NCI-H23 lung): 49.5 µM | TGI (UACC-257 melanoma): > 100 µM | TGI (SK-MEL-5 melanoma): > 100 µM | TGI (SK-MEL-2 melanoma): > 100 µM | TGI (HT29 colon): > 100 µM | TGI (SF-295 CNS): 54.4 µM | TGI (SF-268 CNS): 85.2 µM | TGI (CCRF-CEM leukemia): > 100 µM | TGI (SK-MEL-28 melanoma): > 100 µM | TGI (LOX IMVI melanoma): > 100 µM | TGI (EKVX NSCLC): 89 µM | TGI (MCF7 breast): > 100 µM | TGI (MOLT-4 leukemia): > 100 µM | TGI (NCI-H226 lung): 30.3 µM

Cc1cccc2nc(-c3ccccc3)cc(=O)n12
TGI (K-562 leukemia): > 100 µM | TGI (RXF 393 renal): > 100 µM | TGI (PC-3 prostate): > 100 µM | TGI (HCT-15 colon): > 100 µM | TGI (SNB-19 CNS): > 100 µM | TGI (OVCAR-8 ovarian): > 100 µM | TGI (TK-10 renal): > 100 µM | TGI (U251 CNS): > 100 µM | TGI (NCI-H522 lung): > 100 µM | TGI (ACHN renal): > 100 µM | TGI (SK-OV-3 ovarian): > 100 µM | TGI (NCI-H460 lung): > 100 µM | TGI (HCC-2998 colon): > 100 µM | TGI (786-0 renal): > 100 µM | TGI (COLO 205 colon): > 100 µM | TGI (NCI/ADR-RES ovarian): > 100 µM | TGI (OVCAR-3 ovarian): > 100 µM | TGI (A549 NSCLC): > 100 µM | TGI (BT-549 breast): > 100 µM | TGI (HS 578T breast): > 100 µM | TGI (SW-620 colon): > 100 µM | TGI (SN12C renal): > 100 µM | TGI (MDA-N): > 100 µM | TGI (OVCAR-5 ovarian): > 100 µM | TGI (RPMI-8226 leukemia): > 100 µM | TGI (MALME-3M melanoma): > 100 µM | TGI (SR leukemia): > 100 µM | TGI (HOP-92 NSCLC): > 100 µM | TGI (T-47D breast): > 100 µM | TGI (HOP-62 NSCLC): > 100 µM | TGI (KM12 colon): > 100 µM | TGI (IGROV1 ovarian): > 100 µM | TGI (M14 melanoma): > 100 µM | TGI (SF-539 CNS): > 100 µM | TGI (MDA-MB-231 breast): > 100 µM | TGI (HCT-116 colon): > 100 µM | TGI (OVCAR-4 ovarian): > 100 µM | TGI (UACC-62 melanoma): > 100 µM | TGI (NCI-H23 lung): > 100 µM | TGI (UACC-257 melanoma): > 100 µM | TGI (SK-MEL-5 melanoma): > 100 µM | TGI (HT29 colon): > 100 µM | TGI (SF-295 CNS): > 100 µM | TGI (HL-60(TB) leukemia): > 100 µM | TGI (SF-268 CNS): > 100 µM | TGI (CCRF-CEM leukemia): > 100 µM | TGI (SK-MEL-28 melanoma): > 100 µM | TGI (EKVX NSCLC): > 100 µM | TGI (DU-145 prostate): > 100 µM | TGI (MCF7 breast): > 100 µM | TGI (MOLT-4 leukemia): > 100 µM | TGI (NCI-H226 lung): > 100 µM
